# According to patent US20240423973A1, “COMPOUNDS, PHARMACEUTICAL COMPOSITIONS, AND METHODS FOR THE TREATMENT, PREVENTION, OR MANAGEMENT OF HYPERPROLIFERATIVE DISORDERS” (VINCERX PHARMA GMBH, priority 2021, published 2024):
# Structures can show the parent of a compound that is named as a salt.
# Legend:
# Experiment in all cases: Cytotoxicity in vitro in the presence and absence of elastase (MTT assay)
# [1] = system: 786-O; format: cell-based, human; conditions: 786-O cells, 72 h
# Method: (§1) Cultivation of cells was performed according to standard procedures with the media recommended by the provider. The cells, in a total volume of 100 μL, were seeded in a 96-well plate with a white bottom (#3610). After a 24 h incubation period at 37° C. and 5% CO2, the medium was exchanged by adding 90 μL fresh medium. The treatment started by adding the test compound in 10 μL of culture medium to the cells in triplicates. Concentrations ranging from 10^−5 M to 10^−13 M were chosen. Two identically treated sets of samples were prepared. One set was treated with the test compound alone, whereas to the second set the compound and 10 nM elastase was added followed by a 72 h incubation period at 37° C. and 5% CO2. The proliferation was detected using the MTT assay (ATCC). At the end of the incubation period the MTT reagent was added to all samples for 4h. Lysis of the cells followed by addition of the detergent was done overnight. The formed dye was detected at 570 nm. The proliferation of untreated but otherwise identically handled cells was define as the […].
# [2] = system: HT29; format: cell-based, human; conditions: HT29 cells, 72 h
# Method: as §1
# [3] = system: NCI H292; format: cell-based, human; conditions: NCI H292 cells, 72 h
# Method: as §1
# [4] = system: SUM149; format: cell-based; conditions: SUM149 cells, 72 h
# Method: as §1
smiles,measurement,setting,value
CCCNC(=O)Nc1cccc(S(=O)(=O)Nc2cccc([C@@H](CC(=O)O)N(C(=O)NC(N)=O)c3ccc(NCCCCOC(=O)C[C@H](NC(=O)CCOCCOCCOCCNc4ccc(N(C(=O)NC(N)=O)[C@H](CC(=O)O)c5cccc(NS(=O)(=O)c6cccc(NC(=O)NCCC)c6)c5)cc4)C(=O)N4CCC[C@H]4C(=O)N[C@H](C(=O)O[C@]4(CC)C(=O)OCc5c4cc4n(c5=O)Cc5c-4nc4ccccc4c5CC)C(C)C)cc3)c2)c1 [Compound C4],IC50,[1]; compound alone (no elastase),10 to 100 nM
same,IC50,[1]; with 10 nM elastase,0.01 to 0.1 nM
same,IC50,[2]; compound alone (no elastase),> 100 nM
same,IC50,[2]; with 10 nM elastase,0.01 to 0.1 nM
same,IC50,[3]; compound alone (no elastase),1.1 to 10 nM
same,IC50,[3]; with 10 nM elastase,0.01 to 0.1 nM
same,IC50,[4]; compound alone (no elastase),1.1 to 10 nM
same,IC50,[4]; with 10 nM elastase,0.01 to 0.1 nM
CCCNC(=O)Nc1cccc(S(=O)(=O)Nc2cccc([C@@H](CC(=O)OCCCN)NC(=O)Nc3ccc(NC(=O)NCCOCCOCCOCCC(=O)N[C@@H](CC(=O)OCCCN)C(=O)N4CCC[C@H]4C(=O)N[C@H](C(=O)O[C@]4(CC)C(=O)OCc5c4cc4n(c5=O)Cc5c-4nc4ccccc4c5CC)C(C)C)cc3)c2)c1 [Compound C8],IC50,[1]; compound alone (no elastase),10 to 100 nM
same,IC50,[1]; with 10 nM elastase,0.1 to 1 nM
same,IC50,[2]; compound alone (no elastase),> 100 nM
same,IC50,[2]; with 10 nM elastase,0.1 to 1 nM
same,IC50,[3]; compound alone (no elastase),1.1 to 10 nM
same,IC50,[3]; with 10 nM elastase,0.1 to 1 nM
same,IC50,[4]; compound alone (no elastase),1.1 to 10 nM
same,IC50,[4]; with 10 nM elastase,0.1 to 1 nM
"CCCNC(=O)Nc1cccc(S(=O)(=O)Nc2cccc([C@@H](CC(=O)O)NC(=O)Nc3ccc(NC(=O)NCCN(C)CCN(C)CCN(C)CC(=O)NCC(=O)N4CCC[C@H]4C(=O)N[C@H](C(=O)O[C@]4(CC)C(=O)OCc5c4cc4n(c5=O)Cc5c-4nc4ccccc4c5CC)C(C)C)cc3)c2)c1 [Compound B2, (4S)-4,11-diethyl-3,14-dioxo-3,4,12,14-tetrahydro-1H-pyrano[3′,4′:6,7]indolizino[1,2-b]quinolin-4-yl N-{2-[{2-[{2-[({4-[({(1R)-2-carboxy-1-[3-({3-[(propylcarbamoyl)amino]benzene-1-sulfonyl}amino)phenyl]ethyl}carbamoyl)amino]phenyl}carbamoyl)amino]ethyl}(methyl)amino]ethyl}(methyl)amino]ethyl}-N-methylglycylglycyl-L-prolyl-L-valinate]",IC50,[1]; compound alone (no elastase),1.1 to 10 nM
same,IC50,[1]; with 10 nM elastase,< 0.01 nM
same,IC50,[2]; compound alone (no elastase),10 to 100 nM
same,IC50,[2]; with 10 nM elastase,< 0.01 nM
same,IC50,[3]; compound alone (no elastase),1.1 to 10 nM
same,IC50,[3]; with 10 nM elastase,< 0.01 nM
same,IC50,[4]; compound alone (no elastase),0.1 to 1 nM
same,IC50,[4]; with 10 nM elastase,< 0.01 nM
CCCNC(=O)Nc1cccc(S(=O)(=O)Nc2cccc([C@H](CC(=O)O)NC(=O)Nc3ccc(NC(=O)NCCN(C)CCN(C)CCN(C)CC(=O)NCCCC[C@H](NC(=O)CN(C)CCN(C)CCN(C)CCNC(=O)Nc4ccc(NC(=O)N[C@@H](CC(=O)O)c5cccc(NS(=O)(=O)c6cccc(NC(=O)NCCC)c6)c5)cc4)C(=O)NCCN(C)CCN(C)CCN(C)CC(=O)N[C@@H](CC(N)=O)C(=O)N4CCC[C@H]4C(=O)N[C@H](C(=O)O[C@]4(CC)C(=O)OCc5c4cc4n(c5=O)Cc5c-4nc4ccccc4c5CC)C(C)C)cc3)c2)c1 [Compound A8],IC50,[1]; compound alone (no elastase),10 to 100 nM
same,IC50,[1]; with 10 nM elastase,0.1 to 1 nM
same,IC50,[2]; compound alone (no elastase),10 to 100 nM
same,IC50,[2]; with 10 nM elastase,0.1 to 1 nM
same,IC50,[3]; compound alone (no elastase),1.1 to 10 nM
same,IC50,[3]; with 10 nM elastase,0.1 to 1 nM
same,IC50,[4]; compound alone (no elastase),1.1 to 10 nM
same,IC50,[4]; with 10 nM elastase,0.1 to 1 nM
CCCNC(=O)Nc1cccc(S(=O)(=O)Nc2cccc([C@@H](CC(=O)OCCCCN)NC(=O)Nc3ccc(NC(=O)NCCOCCOCCOCCC(=O)N[C@@H](CC(=O)OCCCCN)C(=O)N4CCC[C@H]4C(=O)N[C@H](C(=O)O[C@]4(CC)C(=O)OCc5c4cc4n(c5=O)Cc5c-4nc4ccccc4c5CC)C(C)C)cc3)c2)c1 [Compound C7],IC50,[1]; compound alone (no elastase),10 to 100 nM
same,IC50,[1]; with 10 nM elastase,0.1 to 1 nM
same,IC50,[2]; compound alone (no elastase),> 100 nM
same,IC50,[2]; with 10 nM elastase,0.1 to 1 nM
same,IC50,[3]; compound alone (no elastase),1.1 to 10 nM
same,IC50,[3]; with 10 nM elastase,0.01 to 0.1 nM
same,IC50,[4]; compound alone (no elastase),1.1 to 10 nM
same,IC50,[4]; with 10 nM elastase,< 0.01 nM
"CCCNC(=O)Nc1cccc(S(=O)(=O)Nc2cccc([C@@H](CC(=O)O)NC(=O)Nc3ccc(NC(=O)NCCN(C)CCN(C)CCN(C)CC(=O)N[C@@H](CC(N)=O)C(=O)N4CCC[C@H]4C(=O)N[C@H](C(=O)O[C@]4(CC)C(=O)OCc5c4cc4n(c5=O)Cc5c-4nc4ccccc4c5CC)C(C)C)cc3)c2)c1 [Compound B4, (4S)-4,11-Diethyl-3,14-dioxo-3,4,12,14-tetrahydro-1H-pyrano[3′,4′:6,7]indolizino[1,2-b]quinolin-4-yl N-{2-[{2-[{2-[({4-[({(1R)-2-carboxy-1-[3-({3-[(propylcarbamoyl)amino]benzene-1-sulfonyl}amino)phenyl]ethyl}carbamoyl)amino]phenyl}carbamoyl)amino]ethyl} (methyl)amino]ethyl} I(methyl)amino]ethyl}-N-methylglycyl-L-asparaginyl-L-prolyl-L-valinate]",IC50,[1]; compound alone (no elastase),10 to 100 nM
same,IC50,[1]; with 10 nM elastase,0.01 to 0.1 nM
same,IC50,[2]; compound alone (no elastase),10 to 100 nM
same,IC50,[2]; with 10 nM elastase,0.01 to 0.1 nM
same,IC50,[3]; compound alone (no elastase),10 to 100 nM
same,IC50,[3]; with 10 nM elastase,0.01 to 0.1 nM
same,IC50,[4]; compound alone (no elastase),1.1 to 10 nM
same,IC50,[4]; with 10 nM elastase,< 0.01 nM
"CCCNC(=O)Nc1cccc(S(=O)(=O)Nc2cccc([C@@H](CC(=O)O)NC(=O)Nc3ccc(NC(=O)NCCOCCOCCOCCC(=O)N[C@@H](CC(=O)OCC[N+](C)(C)C)C(=O)N4CCC[C@H]4C(=O)N[C@H](C(=O)O[C@]4(CC)C(=O)OCc5c4cc4n(c5=O)Cc5c-4nc4ccccc4c5CC)C(C)C)cc3)c2)c1 [Compound C1, trifluoroacetate]",IC50,[1]; compound alone (no elastase),10 to 100 nM
same,IC50,[1]; with 10 nM elastase,0.01 to 0.1 nM
same,IC50,[2]; compound alone (no elastase),10 to 100 nM
same,IC50,[2]; with 10 nM elastase,0.01 to 0.1 nM
same,IC50,[3]; compound alone (no elastase),10 to 100 nM
same,IC50,[3]; with 10 nM elastase,0.01 to 0.1 nM
same,IC50,[4]; compound alone (no elastase),10 to 100 nM
same,IC50,[4]; with 10 nM elastase,0.01 to 0.1 nM
CCCNC(=O)Cc1cccc(S(=O)(=O)Nc2cccc([C@H](CC(=O)O)NC(=O)Nc3ccc(NC(=O)NCCOCCOCCOCCC(=O)N[C@@H](CCCCNC(=O)CCOCCOCCOCCNC(=O)Nc4ccc(NC(=O)N[C@@H](CC(=O)O)c5cccc(NS(=O)(=O)c6cccc(NC(=O)NCCC)c6)c5)cc4)C(=O)NCCN(C)CCN(C)CCN(C)CC(=O)N[C@@H](CC(N)=O)C(=O)N4CCC[C@H]4C(=O)N[C@H](C(=O)O[C@]4(CC)C(=O)OCc5c4cc4n(c5=O)Cc5c-4nc4ccccc4c5CC)C(C)C)cc3)c2)c1 [Compound A6],IC50,[1]; compound alone (no elastase),10 to 100 nM
same,IC50,[1]; with 10 nM elastase,0.1 to 1 nM
same,IC50,[2]; compound alone (no elastase),10 to 100 nM
same,IC50,[2]; with 10 nM elastase,0.1 to 1 nM
same,IC50,[3]; compound alone (no elastase),1.1 to 10 nM
same,IC50,[3]; with 10 nM elastase,0.1 to 1 nM
same,IC50,[4]; compound alone (no elastase),1.1 to 10 nM
same,IC50,[4]; with 10 nM elastase,0.01 to 0.1 nM
CCCNC(=O)Nc1cccc(S(=O)(=O)Nc2cccc([C@H](CC(=O)O)NC(=O)Nc3ccc(NC(=O)NCCN(C)CCN(C)CCN(C)CC(=O)NCCN(C)CCN(C)CCN(C)CC(=O)N[C@@H](CC(N)=O)C(=O)N4CCC[C@H]4C(=O)N[C@H](C(=O)O[C@]4(CC)C(=O)OCc5c4cc4n(c5=O)Cc5c-4nc4ccccc4c5CC)C(C)C)cc3)c2)c1 [Compound D2],IC50,[1]; compound alone (no elastase),10 to 100 nM
same,IC50,[1]; with 10 nM elastase,0.1 to 1 nM
same,IC50,[2]; compound alone (no elastase),10 to 100 nM
same,IC50,[2]; with 10 nM elastase,0.1 to 1 nM
same,IC50,[3]; compound alone (no elastase),10 to 100 nM
same,IC50,[3]; with 10 nM elastase,0.1 to 1 nM
same,IC50,[4]; compound alone (no elastase),1.1 to 10 nM
same,IC50,[4]; with 10 nM elastase,0.1 to 1 nM
